Legend:
[1] = Microsomal stability in mice microsomes; assay type: in vitro ADME; details: 37 °C, 0-60 min
Experimental: The human, rat, and mice microsomes employed were purchased from Tebu-Xenotech. The compound was incubated at 37 °C with the microsomes in a 50 mM phosphate buffer (pH = 7.4) containing 30 mM MgCl2, 10 mM NADP, 100 mM glucose-6-phosphate and 20 U/mL glucose-6-phosphate-dehydrogenase. Samples (75 µL) were taken from each well at 0, 10, 20, 40, and 60 min and transferred to a plate containing 4 °C 75 µL acetonitrile. Then, 30 µL of 0.5% formic acid in water was added to improve the chromatographic conditions. The plate was centrifuged (46,000× g, 30 min) and supernatants were taken and analyzed in a UPLC-MS/MS (Xevo-TQD, Waters) by employing a BEH C18 column and an isocratic gradient of 0.1% formic acid in water: 0.1% formic acid acetonitrile (60:40) for 5 minutes and a flow of 0.25 mL/min. The metabolic stability of the compounds was calculated from the logarithm of remaining compounds at each time point studied.

CYP1A2 = target: T1, CYP1A2 (Homo sapiens, UniProt P05177); assay: Cytochrome inhibition, fluorescent detection (CEC substrate); assay type: in vitro ADME; details: recombinant human CYP1A2
T1 construct: host or cells: insect cell microsomes
T1 sequence (P05177 1-516): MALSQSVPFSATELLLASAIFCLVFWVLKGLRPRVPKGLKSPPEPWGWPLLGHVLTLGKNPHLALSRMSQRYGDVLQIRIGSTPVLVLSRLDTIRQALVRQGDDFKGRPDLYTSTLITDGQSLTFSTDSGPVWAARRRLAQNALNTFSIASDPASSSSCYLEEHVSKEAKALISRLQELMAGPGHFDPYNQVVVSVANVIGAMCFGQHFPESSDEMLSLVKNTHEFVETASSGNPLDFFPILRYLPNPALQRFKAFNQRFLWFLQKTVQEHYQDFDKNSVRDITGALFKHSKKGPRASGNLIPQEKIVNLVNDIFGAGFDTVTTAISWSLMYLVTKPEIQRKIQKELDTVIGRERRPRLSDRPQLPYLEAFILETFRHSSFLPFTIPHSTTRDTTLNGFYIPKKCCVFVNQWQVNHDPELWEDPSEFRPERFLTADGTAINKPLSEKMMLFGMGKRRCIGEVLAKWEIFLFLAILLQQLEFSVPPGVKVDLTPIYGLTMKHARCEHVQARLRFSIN
Experimental: (§1) To screen the inhibition potential of the compounds, recombinant human cytochrome P450 enzymes (CYP1A2, CYP2C9, CYP2C19, CYP2D6, and CYP3A4) and probe substrates were used with the fluorescent detection method. Incubations were conducted in 200-µL volume 96 well microtiter plates (COSTAR 3915). Addition of cofactor-buffer mixture (KH2PO4 buffer, 1.3 mM NADP+, 3.3 mM MgCl2, 3.3 mM Glucose-6-phosphate and 0.4 U/mL Glucose-6-phosphate Dehydrogenase), supersomes control, standard inhibitors (Furafyline, Tranylzypromine, Ketoconazole, Sulfaphenazole, and Quinidine; from Sigma Aldrich), and test compounds to plates were carried out using a a liquid handling station (Zephyr Caliper). The plate was then pre-incubated at 37 °C for 5 min, and the reaction initiated by the addition of pre-warmed enzyme/substrate (E/S) mix. […] Fluorescence per well was measured using a fluorescence plate reader (Tecan M1000 pro), and the percentage of inhibition was calculated.

CYP2C19 = target: T2, CYP2C19 (Homo sapiens, UniProt P33261); assay: as above; assay type: in vitro ADME; details: recombinant human CYP2C19
T2 construct: host or cells: insect cell microsomes
T2 sequence (P33261 whole entry): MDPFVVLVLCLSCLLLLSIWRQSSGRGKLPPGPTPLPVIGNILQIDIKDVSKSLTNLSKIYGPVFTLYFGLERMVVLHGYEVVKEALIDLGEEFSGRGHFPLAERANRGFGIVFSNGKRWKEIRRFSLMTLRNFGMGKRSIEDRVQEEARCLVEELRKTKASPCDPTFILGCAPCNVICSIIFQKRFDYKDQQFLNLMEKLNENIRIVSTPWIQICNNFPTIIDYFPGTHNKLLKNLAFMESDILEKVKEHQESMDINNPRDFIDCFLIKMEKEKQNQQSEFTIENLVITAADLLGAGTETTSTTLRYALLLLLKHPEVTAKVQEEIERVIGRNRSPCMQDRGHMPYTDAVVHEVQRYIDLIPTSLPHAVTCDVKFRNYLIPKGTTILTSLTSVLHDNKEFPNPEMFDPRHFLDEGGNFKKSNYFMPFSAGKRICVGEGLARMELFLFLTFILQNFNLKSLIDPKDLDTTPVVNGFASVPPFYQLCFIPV
Experimental: as §1

NMDAR = system: NMDAR; parameters: method as in PMID 29767953; details: early preclinical in vitro experiments; cited from earlier work
SAMR1 and SAMP8 mice = assay: Three-chamber test (TCT); assay type: in vivo, mouse; details: SAMP8 strain, 5 mg/kg/day, vs SP8 Ct
Experimental: Male SAMR1 and SAMP8 mice (n = 41) with 20-weeks-old were used to carry out cognitive and molecular analysis. The animals were randomly divided into four groups: SAMR1 control (SR1 Ct) group (n = 11), SAMP8 control (SP8 Ct) group (n = 8), SAMR1 treated with RL-208 (SR1 RL-208 (5 mg/Kg)) group (n = 10) and SAMP8 treated with RL-208 (SP8 RL-208 (5 mg/Kg)) group (n = 12). Animals had free access to food and water, under standard temperature conditions (22±2 °C) and 12h:12h light-dark cycles (300 lux/0 lux). RL-208, (3,4,8,9-tetramethyltetracyclo[4.4.0.0^3,9.0^4,8]dec-1-yl)-methylamine hydrochloride, (5 mg/kg/day) was administered through drinking water for four weeks before starting the cognitive test. RL-208 was administered up to euthanasia (Figure 1A). Water consumption was controlled each week for each cage and strain. […]
The three-chamber test (TCT) was used to assess preference for social novelty (time spent with a novel intruder in contrast with a familiar one) and sociability (time spent with rodents). […] Each test consists of 15 minutes and is recorded with a camera. […] The time spent in each chamber was evaluated. Then, an intruder (same-sex and age) was added to one of the rooms in a metal cup, and behaviour is recorded for 10 minutes. The time spent in each chamber is evaluated as well as the time interacting with the intruder (e.g., sniffing, rears, entries in each chamber).

microsomal stability [1]: good
CYP1A2 inhibition (CYP1A2): 5 ± 2%
CYP2C19 inhibition (CYP2C19): 23 ± 1%
SMILES: CC12CC3CC1(C)C1(C)CC3(CN)CC21C.Cl [RL-208, (3,4,8,9-tetramethyltetracyclo [4.4.0.0^3,9.0^4,8]dec-1-yl)methylamine hydrochloride]
IC50 (NMDAR): ~1000 nM
time sniffing the intruder (sociability) (SAMR1 and SAMP8 mice): significantly augmented

Source: publication PMC7151078, “A Novel NMDA Receptor Antagonist Protects against Cognitive Decline Presented by Senescent Mice” (Pharmaceutics, 2020)
